{"source": "patent US20190059429A1", "about": "“SALT COMPOSITION INCLUDING SERINE” (NESTEC S.A., priority 2016, published 2019)", "key": {"trained panellists": {"system": "trained panellists", "test": "Sensory evaluation of tablets by 11 trained panellists", "format": "in vivo", "settings": "tablets 123.7 mg", "experimental": "Bars coloured black denote a significant difference in a particular taste/sensory characteristic. Unshaded bars denote that there is no significant difference in the characteristic. A positive number represents an increased sensory response of the co-crystal compared to the physical mixture.\nTablets for sensory evaluation were prepared using a Romaco Kilian Styl'One single-stroke tablet press. […] The tablets were prepared with three compressions of 300 ms and an interval of 200 ms.\nEach of the panellists received a tray with two tablets presented on plastic plates coded with random 3-digit numbers. The tablets had to be crunched with the front teeth and kept in mouth to dissolve slowly (method 1). Alternatively, tablets could be crunched with the front teeth and chewed constantly in the mouth until complete dissolution occurred (method 2).\nAfterwards the panellists were asked to rate the taste of the tablets in respect of the following 12 categories: upfront saltiness (1), overall saltiness (2), sweetness (3), sourness (4), umami (5), friable (6), melting (7), overall persistence (8), saltiness persistence (9), sweetness persistence (10), sourness persistence (11), and tingling (12)."}, "[1]": {"test": "Dissolution kinetics in water by online refractometry", "format": "physicochemical", "settings": "60 mL water, stirred 500 rpm, room temperature, particle size 100-200 μm, refractive index", "experimental": "FIG. 1 Dissolution kinetics. The change in refractive index (n) was measured by online-refractometry in water over the time period 0 to 50 seconds. 0.56 g of pure NaCl (triangle); 2.58 g of (L-serine)2.sodium chloride co-crystals (diamond); a physical mixture of 2.02 g L-serine and 0.56 g NaCl (cross); and a 2.02 g of pure L-serine (star) were each added to 60 mL of water stirred (500 rpm) at room temperature. The particle size of the respective solids was standardized in the range 100-200 μm.\nThe rate of dissolution of a solid in a liquid may be measured by refractometry. A refractometer measures the extent to which light is refracted when it moves from air into a sample, thereby allowing the refractive index (n) of the sample to be measured. […] Accordingly, by monitoring the change in refractive index over time, the kinetic rate of dissolution of a solid can be determined. So that independent measurements of dissolution rate can be compared, the refractive index values may be normalised by expression as a percentage of the maximal value recorded in a particular experiment.\nThe dissolution behaviour of (L-serine)2.sodium co-crystals obtained by direct crystallisation from a saturated solution (Example 2) were tested by refractometry. In this experiment, test samples were added to 60 mL of water, and the extent of dissolution was measured while stirring at 500 rpm. […]"}}, "data": [{"smiles": "N[C@@H](CO)C(=O)O.N[C@@H](CO)C(=O)O.[Cl-].[Na+]", "note": "[(L-serine)2.sodium chloride co-crystals, (L-serine)2.sodium chloride]", "values": [{"measurement": "salty taste perceived, co-crystal tablets vs L-serine/NaCl physical mix tablets", "setting": "trained panellists; during and after consumption", "value": "significantly more salty"}, {"measurement": "overall saltiness vs physical mix", "setting": "trained panellists; FIG. 2", "value": "superior"}, {"measurement": "saltiness persistence vs physical mix", "setting": "trained panellists; FIG. 2", "value": "superior"}, {"measurement": "upfront saltiness vs physical mix", "setting": "trained panellists; FIG. 2", "value": "superior"}, {"measurement": "time to reach 90% dissolution", "setting": "[1]", "value": "around 25 seconds"}]}, {"smiles": "[Cl-].[Na+]", "note": "[NaCl, Sodium chloride, reference compound]", "values": [{"measurement": "time to reach 90% dissolution", "setting": "[1]", "value": "around 25 seconds"}]}]}
